Experimental data: patent US5747461A, “Synergistic administration of cyclosporine and fructose diphosphate” (priority 1994, dated 1998)
“And” between values parts separate entries of the source, which are not always exact repeats. Equal entries are not always repeated.

Tests used:
rat cardiac allograft = assay: Intra-abdominal heart transplantation, series 2 (FDP alone and with cyclosporine); assay type: in vivo; details: FDP pre and perioperative only (350 mg/kg IV, infusion 10 mg/kg IV for 90 min); n=5
Protocol: In a second series of in vivo tests, FDP alone and in conjunction with cyclosporine was tested for its ability to suppress allograft rejection and prolong survival of the transplanted heart. […] Therefore, these tests evaluated FDP in conjunction with sub-optimal doses of CSA.
In these tests, the same procedure as described above was used to transplant hearts into the abdomens of recipient animals. Unlike the earlier tests, the animals also received prophylactic antibiotic treatment following surgery, as well as daily application of Bacitracin ointment of the site of the venous catheter.
The surgical technique used in these tests was exactly the same as described in Example 2, except the animals in this series of tests received prophylactic antibiotic treatment following surgery, and daily application of Bacitracin ointment of the site of the venous catheter.
The animals were divided into the following 6 groups: […]

ex vivo stored hearts = assay: Ex vivo cold ischemic storage and reperfusion of hearts (Langendorf apparatus); set-up: species or system rat
Protocol: Hearts were harvested from ketamine-anesthetized Sprague Dawley rats (350-450 gm body weight). Prior to harvesting the hearts, 17 randomly chosen rats received an intravenous bolus injection of FDP 450 mg/kg (10%). The hearts were removed, the left atria and aorta were attached to a modified Langendorf apparatus within 3 min, and the hearts were perfused ex vivo for 15 min at 37° C. with Krebs-Henseleit solution to which 0.07 mg/ml of FDP had been added. Rats in the control group (n=21) received an equivalent volume saline injection prior to surgery, and the hearts were perfused for 15 min with Krebs-Henseleit solution containing no FDP. Heart rates, systolic and diastolic pressures, cardiac outputs, and coronary blood flow during this period were measured and recorded.
After the 15 minute perfusion period, the control hearts (n=21) were flushed with cardioplegic solution (Isolyte, K^+ 20 mEq/L). The FDP=treated hearts (n=17) were flushed with the same solution containing 1 mg/cc of FDP. The hearts were respectively placed in cold (4° C.) saline solution, with 0.9% NaCl or 0.9% NaCl containing 1 mg/ml FDP, and stored at 4° C. for 4 hours. After the 4 hour storage period was completed, the hearts were reperfused and warmed to 37° C. again. Seven hearts from each group were taken out of the Langendorf apparatus after 15 minutes and analyzed for myocardial ATP content. The remaining hearts (10 in the treatment group, and 14 in the control group) were measured in various ways (heartbeat rates, mean aortic and systolic pressures, and cardiac output) for 2 hours following the commencement of reperfusion.

[1] = system: cardiac allograft (Wistar-Furth donor heart in Lewis rat); assay: Intra-abdominal heart transplantation, series 1 (graft survival, rejection grade); assay type: in vivo
Source text: Since unwanted T cell stimulation is known to be a primary factor in causing allograft rejection, the results of the in vitro studies discussed above, showing that FDP can suppress T cell stimulation, led to a series of in vivo tests using heart transplantations in rats. These tests are described in detail in Example 2. Briefly, laboratory rats from a strain known as Lewis rats were used as recipients, while rats from a different strain known as Wistar-Furth were used as heart donors.
In the recipient animals, the native heart was not cut out and replaced by a new heart. […] This model provides a good test to determine whether the body will reject the foreign tissue, yet it avoids the extraordinary difficulties that would arise if the animal's native heart were cut out.
In the first round of tests, four treatment groups and one control group were established. The control group received no FDP. The four treatment groups were injected intravenously with 350 mg/kg of FDP 15 minutes prior to surgery, at a dosage of 350 mg/kg (i.e., 350 mg of FDP per kilogram of body weight). The treatment animals also received a 90 minute infusion of FDP during the operation, at a rate of 10 mg/kg/min. In addition to these "perioperative FDP" injections, the four treatment groups also received:
The animals were examined daily for viability. […] When the transplanted heart reached a level of non-viability, a lethal dose of pentobarbital was given, and the heart was removed, examined microscopically, and graded for rejection using the Stanford grading scale.
If a transplanted heart stopped beating prior to three days postoperatively, that animal was dropped from the study. Rats that died within five days of the operation for unknown causes were also dropped from the study. These deaths were believed to be secondary to sepsis, rather than caused by tissue rejection. Also, one animal in Group 1 died from a suture fracture; this animal was also dropped from the study.
Male Wistar-Furth rats (WF;RT-1^u) and male Lewis rats (Lew;RT-1^1)were obtained from Harlan Sprague-Dawley Animal Laboratories. Lewis rats weighing (200-224 gm) were used as recipients. WF rats weighing (200-224 gm) were used as donors.
The Lewis rats were anesthetized with a mixture of ketamine (100 mg/kg) and xylocaine (5 mg/kg) by intraperitoneal injection (IP) 1 to 2 days prior to transplantation. At this time, PE-90 tubing was placed in the internal jugular vein and brought out through the posterior aspect of the neck. The rats were placed in individual cages to prevent dislodging of the catheter. No limits were placed on water or rat chow.
The transplantation procedure was a modified version of Ono and Lindsey's microvascular technique for intra-abdominal transplantation. WF rats were anesthetized with pentobarbital (50 mg/kg). The chest and abdomen were shaved and prepped with betadine and then placed on a thermostatically controlled operating platform. […] After three minutes, the sternum and anterior chest were separated from the diaphragm and lateral ribs with heavy scissors. The chest cavity was opened and the IVC was ligated using a 5-0 silk ligature. The aorta was then dissected out and cross clamped at the level of the innominate artery. Three cc of cold cardioplegia solution (4° C.) was injected into the aortic root with a 25 gauge needle. The aorta was divided below the clamp. The pulmonary artery was dissected free and divided at its bifurcation. […] The heart was then removed and placed in iced saline with heparin (2 units/ml).
Lewis rats were then anesthetized in a similar fashion. After shaving and prepping the abdomen, a mid-line incision was made. The IVC and the infrarenal aorta were mobilized together. A curved bulldog was then used to cross clamp the vessels. The anastomosis was sewn between the […] and IVC using a 9-0 Ethicon microsurgical suture. The aorta-aorta anastomosis was then performed in a similar end-side fashion. […]

[2] = system: Concanavalin A-stimulated T-lymphocytes; assay: Thymidine incorporation by Concanavalin A-stimulated T-lymphocytes; assay type: cell-based, rat; details: ConA-stimulated
Protocol: The in vitro tests, and their results, are described in detail in Example 1. Briefly, T lymphocytes were obtained from rat spleens. The cells were then stimulated by Concanavalin A (ConA), a mitogen that specifically stimulates T lymphocyte replication, both in control samples and in samples that were also contacted with either FDP or cyclosporine at various concentrations. Cell replication was measured by assaying the uptake of thymidine which had been radiolabelled using tritium, a heavy isotope of hydrogen. Cell viability was measured using a dye, trypan blue; intact and viable cells can exclude trypan blue from their interiors, while damaged or dead cells cannot.
Sprague-Dawley rats (150-200 gm body weight) were euthanized by overdose of ketamine (injected intramuscularly, IM). Their spleens were removed under sterile conditions and placed in a plastic petri dish with Buffered Hanks Solution (BHS). The splenic parenchyma was torn apart with sterile needles and forceps. The solution with the splenic fragments was homogenized with a Teflon pestle in a glass tube. This allowed the cells to be expressed into the solution which was then filtered and placed over Ficoll-Hypaque and centrifuged at 1500 RPM for 20 minutes in order to separate mononuclear cells. The middle layer of cells (containing lymphocytes) was removed and centrifuged at 1000 RPM for 10 min. After removing the supernates, the remaining red blood cells were lysed with 0.83% NH4 Cl solution, and the cells were again centrifuged at 1000 RPM for 2-3 min. The supernate was poured off and the cells were washed twice with BHS and then resuspended in tissue culture media (RPMI-1640 with 10% fetal calf serum). The cells then were adjusted to final concentration of 5×10^6 cells/ml with RPMI-1640 and 10% fetal calf serum.
A tissue culture multi-well plate was used for incubation. All well filling was done under sterile conditions. […] The well volume capacity was 0.35 ml.
Six different dilutions (freshly prepared in sterile water solution from 10% FDP stock solutions) were used--1:10, 1:100, 1:250, 1:500, 1:1000 and 1:10000. […] A few wells were used to measure the stimulation index, and received ConA or RPMI without FDP or Cyclosporine. All combinations were run in triplicate. The wells were labeled and incubated with CO2 at 35° C. for 48 hours.
Each well then received 0.05 ml of tritiated (^3 H) thymidine (1 μCi/0.05 ml). Radiolabelled thymidine is taken up by proliferating lymphocytes, allowing them to be counted using a liquid scintillation counter. After 16 to 20 hours of incubation the samples were harvested onto glass filter paper strips using a multiple automated sample harvester. The paper was allowed to dry 4-5 hours. Paper from each well was placed in scintillation counting vials with 5 ml fluorane (scintillene). […] Significance was assessed by unpaired t-test.

[3] = system: ischemically stored hearts; assay: Oxygen consumption after hypothermic ischemic storage, heart; set-up: species or system rat; details: hearts n=4; FDP 1 mg/ml in storage solution; 16 to 20 hours storage
Protocol: (§1) Sprague Dawley rats (150-180 gm/body weight) were anesthetized with Ketamine 35 mg/kg. The liver, kidney and heart were excised and placed in 50 ml of a standard cardioplegia solution sold under the trademark ISOLYTE (which contained Na^+ -41 mEq/L, K^+ -16 mEq/L, Ca^++ -5 mEq/L, Mg^++ 3 mEq/L, Cl^- -40 mEq/L, acetate 24 mEq/L with 5% Dextrose), precooled to 4° C. To half of the storage containers, 1 mg/ml of 10% FDP was added; to the rest of the containers, a similar amount of glucose was added. The containers were placed on ice in a refrigerator. After storage for 16 to 20 hours, the organs were weighed and placed in a metabolic chamber for determination of oxygen consumption,using a Clark polarographic electrode. The total volume of the chamber was 10 ml and the composition of the medium was 8 ml phosphate buffered saline (PBS Dulbecco, Mg^++ and Ca^++ free) and 2 cc of Dextrose at a temperature of 36°±0.2° C. The organ was placed in the chamber and 100% oxygen was bubbled for 45 sec. The partial pressure of the dissolved oxygen was usually 480-560 mm Hg. Then the chamber was sealed hermetically, and O2 consumption by the organ was recorded on a strip chart recorder at a speed of 1 cm/min. Initial and final PO2 levels of medium in the chamber were measured on a Radiometer Blood Gas Analyzer Model ABL-4.

[4] = system: ischemically stored livers; assay: Oxygen consumption after hypothermic ischemic storage, liver; set-up: species or system rat; details: livers n=12; FDP 1 mg/ml in storage solution; storage 17.62±0.22 hours at 4° C.; measured at 36.4° C.
Protocol: as §1

[5] = system: ischemically stored kidneys; assay: Oxygen consumption after hypothermic ischemic storage, kidney; set-up: species or system rat; details: kidneys n=11; FDP 1 mg/ml in storage solution; 16 to 20 hours storage
Protocol: as §1

[6] = Group 1 perioperative FDP, Stanford grading scale

## O=C(COP(=O)(O)O)[C@@H](O)[C@H](O)[C@H](O)COP(=O)(O)O [FDP, fructose-1,6-diphosphate]
Rat cardiac allograft
  MST ± SEM (cardiac allograft survival): 11.4 Days and 11.4 ± 0.74 Days
Ex vivo stored hearts; after 15 min of reperfusion, FIG. 5, p<0.01
  myocardial ATP content vs control group: higher
Ex vivo stored hearts; after 1 hour and 30 min of reperfusion following 4 h storage at 4° C., n=10, controls 5 of 14
  hearts still showing a heartbeat: all
Ex vivo stored hearts; after 4 h cold storage, FIG. 1
  post-storage heartbeat rate vs control group: significantly higher
Ex vivo stored hearts; after 4 h cold storage, FIG. 2
  peak systolic aortic pressures vs control group: significantly higher
Ex vivo stored hearts; after 4 h cold storage, FIG. 3
  mean pressures vs control group: significantly higher
Ex vivo stored hearts; after 4 h cold storage, FIG. 4
  cardiac output rates vs control group: significantly higher
[1]; Group 1: perioperative FDP (350 mg/kg IV + 10 mg/kg/min 90 min), no supplemental injections
  Mean Survival Time MST ± SE (graft): 13.5 days and 13.5 ± 1.4101 days
[1]; [6]
  Rejection Grades: number of hearts graded Moderate: 1
  Rejection Grades: number of hearts graded Severe/Advanced: 8
[1]; Group 1 perioperative FDP, Stanford grading scale, N 11, 1 heart not evaluated
  Rejection Grades: number of hearts graded Mild: 1
[1]; Group 2: perioperative FDP + 350 mg/kg every 12 hours (bid), 350 mg/kg
  Mean Survival Time MST ± SE (graft): 8.9 days and 8.9 ± 0.5154 days
[1]; Group 2 FDP bid, N 8
  Rejection Grades: number of hearts graded Mild: 1
  Rejection Grades: number of hearts graded Moderate: 1
  Rejection Grades: number of hearts graded Severe/Advanced: 6
[1]; Group 3: perioperative FDP + 350 mg/kg every 8 hours (tid), 350 mg/kg
  Mean Survival Time MST ± SE (graft): 10 days and 10.0 ± 0.5345 days
[1]; Group 3 FDP tid, N 8
  Rejection Grades: number of hearts graded Moderate: 1
  Rejection Grades: number of hearts graded Severe/Advanced: 7
[1]; Group 4: perioperative FDP + 350 mg/kg every 6 hours (qid), 350 mg/kg
  Mean Survival Time MST ± SE (graft): 9.6 days and 9.4 ± 0.8004 days
[1]; Group 4 FDP qid, N 8
  Rejection Grades: number of hearts graded Severe/Advanced: 8
[1]; Group I perioperative FDP, Stanford grading scale
  rejection grades (span in the group): mild to severe/advanced
[1]; Group II FDP every 12 hours
  rejection grades (span in the group): mild to severe/advanced
[1]; Group III FDP every 8 hours
  rejection grades (span in the group): moderate to severe/advanced
[1]; Group IV FDP every 6 hours
  rejection grades (span in the group): severe/advanced
[2]; FDP 1:10 dilution of 10% stock
  Thymidine incorporation: 136 counts per 2 minute period
[2]; FDP 1:100 dilution of 10% stock
  Thymidine incorporation: 1175 counts per 2 minute period
[2]; FDP 1:250 dilution of 10% stock
  Thymidine incorporation: 24818 counts per 2 minute period
[2]; FDP 1:500 dilution of 10% stock
  Thymidine incorporation: 52481 counts per 2 minute period
[2]; FDP 1:1000 dilution of 10% stock
  Thymidine incorporation: 62518 counts per 2 minute period
[2]; FDP 1:10000 dilution of 10% stock, mean of 13 experiments
  Thymidine incorporation: 89032 counts per 2 minute period
[3]
  post-storage O2 consumption: 68.4±3.14 mmHg O2 /min/gm
[4]
  oxygen consumption after ischemic storage: 76.7±4.4 O2 mmHg/min/gm
[5]
  post-storage O2 consumption: 74.15±4.8 mmHg O2 /min/gm
